The target of one data set is T1, human β3 (Homo sapiens, UniProt P13945).
T1 construct: inserted the 1st exon of human β3 gene was transfected; expressed in transfected cells; host or cells: CHO cells (Chinese hamster ovary), pcDNA3 vector
Nature of the data set: Human β3-agonist activity (cAMP accumulation in CHO cells transfected with human β3 gene). The class given is cell-based. As for the experimental part:
Human β3-agonist Activity Human β3-agonist activity was examined using CHO cells (chinese hamster ovarian cells) to which pcDNA3 (in vitrogen) inserted the 1st exon of human β3 gene was transfected. Human β3 fragment was obtained by PCR using human fat tissue cDNA (supplied from Clontech) with a […] [Krief et al, J. Clin. Invest., Vol. 91, p344-349 (1993)]. And then full length of human […] was cloned using this fragment as a probe.
The cells were cultured in a HAM F-12 medium containing 10% of fetal bovine serum, 400 μg/ml of Geneticin (Gibco BRL), 100 U/ml penicillin and 100 μg/ml streptomycin. 5×10^5 cells were placed on a 6-well plate and cultured for 24 hours, after which the medium was changed to a HAM F-12 medium without serum and was kept for 2 hours. Each test compound was first dissolved in DMSO, and then diluted with a HAM F-12 medium containing 1 mM isobutylmethyl xanthine and 1 mM ascorbic acid. A 10-fold dilution in the range of 10^-5 to 10^-12 M was added into the cells.
After culturing for 30 minutes, culture medium was withdrawn, 0.5 ml of 1 N NaOH was added and was kept for 20 minutes. Ater then 0.5 ml of 1 N acetic acid was added with subsequent agitation and centrifugation. Finally, concentration of cAMP were analyzed using cAMP EIA KIT (Cayman). […] CL316,243 was synthesized by the method given in J. Med. Chem., Vol. 35, p3081-3084 (1992).
Background: cAMP levels reflect the balance of adenylyl cyclase and phosphodiesterase activity.

For another data set, the system named is rat adipocytes. Kind of data set: Lipolytic activity in rat adipocytes (glycerol concentration). Type of data set: cell-based. The settings on record: Adipocyte; for EC50: rat adipocytes, glycerol release, 37° C., 1 hour, read-out: ED50 (the source's name); for Emax: Rattus norvegicus, 1 h, read-out: Intrinsic activity(%). The protocol: Lipolytic Activity in Rat Adipocytes Adipose tissues were collected from epididymis and minced. Krebs-Ringer buffer solution containing 1 mg/ml Collagenase (Sigma) and 1% of bovine serum albumin was added in an amount of 3 ml per one gram of the tissue. These cells were then incubated at 37° C. for 30 minutes with shaking and then undigested tissues were removed with a nylon filter. The resulting adipocytes were washed four times with Krebs-Ringer buffer, and then cells was diluted to 2×10^5 cells/ml with Krebs-Ringer buffer solution containing 4% of bovine serum albumin. These cells were transferred to Eppendorf tubes each in an amount of 300 μl. Each 300 μl of a culture medium containing the test compounds was added to these tubes and was held at 37° C. for 1 hour with shaking. Stimulation was stopped by cooling with ice. After centrifugation, the adipocytes were taken off with an aspirator, and then the concentration of glycerol was determined using F-KIT GLYCEROL (Behringer-Manheim).

Data set [1] in a line: Lipolytic effect in mice (serum free fatty acid). Type of data set: in vivo, male ddy mice. The settings on record: intraperitoneal, 10 mg/kg; 1 hour. As for the experimental part:
Blood Glucose Lowering Effect and Lipolytic Effect Glucose was subcutaneously administered to male ddy mice (supplied from the dirm Nippon Charles Liver) of 6 weeks age at a dose of 2 g/kg. […] After one hour, blood sample was taken from abdominal aorta, serum was separated and served as the sample. Lipolytic Effect: Amount of free fatty acid in the samples was determined using NEFA HA TEST WAKO (of the firm Wako Pure Chemical). […] Therefore, it was shown that they are useful for preventive and therapeutic treatment of hyperlipemia and obesity.

The nature of data set [2]: Blood glucose lowering effect in glucose-loaded mice. Type of data set: in vivo, male ddy mice. The settings on record: intraperitoneal, 10 mg/kg; 1 hour; glucose load 2 g/kg s.c. As for the experimental part:
Blood Glucose Lowering Effect and Lipolytic Effect
Glucose was subcutaneously administered to male ddy mice (supplied from the dirm Nippon Charles Liver) of 6 weeks age at a dose of 2 g/kg. The animals were also treated with either one of test compounds via oral or intraperitoneal administration at a dose of 0.1 ml per 10 g of body weight. After one hour, blood sample was taken from abdominal aorta, serum was separated and served as the sample.
Blood Glucose Lowering Effect:
The samples prepared as above were analyzed for the serum glucose concentration by Auto analyzer (SUPER Z of the firm M. C. Medical). For the analyzer kit, Glucose 11 HA TEST WAKO (of the firm Wako Pure Chemical) was used.
% decrease in blood glucose=[(A-B)/(A-C)]×100
in whcih A represents the glucose concentration after loading glucose, B represents the glucose concentration after administration of the compound and C is the usual level of the glucose concentration.

Details of data set [3]: species or system male ddy mice. The settings on record: mouse, in vivo, po, 100 mg/kg. The protocol:
The compounds of Example 2 was orally administered to 6 weeks age male ddy mice (supplied from the firm Nippon Chrles Liver) at a dose of 100 mg/kg.

The mark [4] stands for this setting: CHO cells expressing human β3, cAMP, 30 minutes; read-out: ED50 (the source's name).
The mark [5] stands for this setting: CHO, read-out: Intrinsic activity(%).

Here are results for twelve compounds from patent US6172099A, “Tricyclic compounds having saturated rings and medicinal compositions containing the same” (Asahi Kasei Kogyo Kabushiki Kaisha, priority 1997, dated 2001).

Where a name gives a salt, the structure may show the parent alone. Read-outs that look alike come from different tables or passages of the source.

T1 sequence (P13945 1-402 limits assumed): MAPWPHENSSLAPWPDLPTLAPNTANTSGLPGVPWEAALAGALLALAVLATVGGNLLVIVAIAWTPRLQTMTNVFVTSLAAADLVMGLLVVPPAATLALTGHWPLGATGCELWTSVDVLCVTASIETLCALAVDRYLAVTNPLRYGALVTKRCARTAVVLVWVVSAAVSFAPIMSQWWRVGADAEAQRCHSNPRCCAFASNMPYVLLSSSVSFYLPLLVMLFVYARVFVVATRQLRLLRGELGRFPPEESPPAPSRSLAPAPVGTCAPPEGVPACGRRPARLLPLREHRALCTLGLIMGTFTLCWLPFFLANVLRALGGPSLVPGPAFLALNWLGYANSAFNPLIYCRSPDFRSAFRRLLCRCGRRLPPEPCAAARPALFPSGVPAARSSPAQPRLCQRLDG

In the case of `CS(=O)(=O)Nc1cc([C@@H](O)CNCCOc2ccc3c4c([nH]c3c2)CCCC4)ccc1Br` [Example 15, (R)-N-[5-[2-[2-(5,6,7,8-tetrahydro-9H-carbazol-2-yloxy)ethylamino]-1-hydroxyethyl]-2-bromophenyl]methanesulfonamide hydrochloride], the EC50 at human β3 (setting [4]) was determined as 40 nM. The Emax on human β3 (setting [5]) came out at 72%.
On to `CS(=O)(=O)Nc1cc([C@@H](O)CNCCOc2ccc3c4c(sc3c2)CCCC4)ccc1O` [Example 28, (R)-N-[5-[2-[2-(6,7,8,9-tetrahydrodibenzothiophen-3-yloxy)ethylamino]-1-hydroxyethyl]-2-hydroxyphenyl]methanesulfonamide hydrochloride], for which the EC50 on human β3 (setting [4]) turned out to be 0.11 nM; in the data set on rat adipocytes, 400 nM. In addition, the Emax at human β3 (setting [5]) was determined as 96%; in the data set on rat adipocytes, 140%.
`CN(C)S(=O)(=O)Nc1cc([C@@H](O)CNCCOc2ccc3c4c(oc3c2)CCCC4)ccc1O` [Example 22, (R)-N'-[5-[2-[2-(6,7,8,9-tetrahydrodibenzofuran-3-yloxy)ethylamino]-1-hydroxyethyl]-2-hydroxyphenyl]-N,N-dimethylsulfamide hydrochloride]: at human β3 (setting [4]), the EC50 amounted to 27 nM. The Emax at human β3 (setting [5]) was 84%.
As for `CS(=O)(=O)Nc1cc([C@@H](O)CNCCOc2ccc3c4c([nH]c3c2)CCCC4)ccc1F` [Example 9, (R)-N-[5-[2-[2-(5,6,7,8-tetrahydro-9H-carbazol-2-yloxy)ethylamino]-1-hydroxyethyl]-2-fluorophenyl]methanesulfonamide hydrochloride], on human β3 (setting [4]), the EC50 worked out at 29 nM. For the same compound, the Emax at human β3 (setting [5]) was determined as 47%.
As for `CS(=O)(=O)Nc1cc([C@@H](O)CNCCOc2ccc3c4c([nH]c3c2)CCCC4)ccc1OCc1ccccc1` [Example 5, (R)-N-[5-[2-[2-(5,6,7,8-tetrahydro-9H-carbazol-2-yloxy)ethylamino]-1-hydroxyethyl]-2-benzyloxyphenyl]methanesulfonamide hydrochloride], at human β3 (setting [4]), the EC50 was 570 nM. Moreover, the Emax at human β3 (setting [5]) worked out at 101%.
As for `CN(C)S(=O)(=O)Nc1cc([C@@H](O)CNCCOc2ccc3c4c([nH]c3c2)CCCC4)ccc1O.Cl` [Example 2, (R)-N'-[5-[2-[2-(5,6,7,8-tetrahydro-9H-carbazol-2-yloxy)ethylamino]-1-hydroxyethyl]-2-hydroxyphenyl]-N,N-dimethylsulfamide hydrochloride], the “increase of free fatty acid concentration” value in data set [1] is “showed an increase of free fatty acid concentration”. In addition, the results for the EC50 at human β3 (setting [4]) and in the data set with rat adipocytes were 0.26 nM and 2000 nM, respectively. Moreover, the Emax was 63% on human β3 (setting [5]) and 127% in the data set with rat adipocytes. In addition, in data set [2], the “reduction of blood glucose” value is “showed a reduction of blood glucose”. Besides, the fatal cases entry in data set [3] is given as “no fatal case was found”.
In the case of `CC(C)NCC(O)c1ccc(O)c(O)c1` (stereo not shown) [isoproterenol, reference compound], in the data set on rat adipocytes, the EC50 worked out at 92 nM and the Emax is 100%.
Turning to `CS(=O)(=O)Nc1cc([C@@H](O)CNCCOc2ccc3c4c(oc3c2)CCCC4)ccc1O` [Example 26, (R)-N-[5-[2-[2-(6,7,8,9-tetrahydrodibenzofuran-3-yloxy)ethylamino]-1-hydroxyethyl]-2-hydroxyphenyl]methanesulfonamide hydrochloride], the values for the EC50 on human β3 (setting [4]) and in the data set on rat adipocytes were 31 nM and 39 nM, respectively. The Emax stood at 111% at human β3 (setting [5]) and 118% in the data set on rat adipocytes.
In the case of `C[C@H](Cc1ccc(OCC(=O)O)cc1)NC[C@H](O)c1cccc(Cl)c1` [BRL37344, reference compound], the Emax on human β3 (CHO; read-out: Intrinsic activity(%)) was found to be 29%.
On to `CS(=O)(=O)Nc1cccc(C(O)CNCCOc2ccc3c4c([nH]c3c2)CCCC4)c1` (racemic) [Example 17, (±)-N-[3-[2-[2-(5,6,7,8-tetrahydro-9H-carbazol-2-yloxy)ethylamino]-1-hydroxyethyl]phenyl]methanesulfonamide hydrochloride], for which the EC50 at human β3 (setting [4]) stood at 92 nM. In addition, at human β3 (setting [5]), the Emax came out at 78%.
As for `CS(=O)(=O)Nc1cc(C(O)CNCCOc2ccc3c4c([nH]c3c2)CCCC4)ccc1Cl` (racemic) [Example 14, (±)-N-[5-[2-[2-(5,6,7,8-tetrahydro-9H-carbazol-2-yloxy)ethylamino]-1-hydroxyethyl]-2-chlorophenyl]methanesulfonamide hydrochloride], the EC50 on human β3 (setting [4]) was 25 nM. The Emax on human β3 (setting [5]) is 62%.
As to `CS(=O)(=O)Nc1cc([C@@H](O)CNCCOc2ccc3c4c([nH]c3c2)CCCC4)ccc1O` [Example 6, (R)-N-[5-[2-[2-(5,6,7,8-tetrahydro-9H-carbazol-2-yloxy)ethylamino]-1-hydroxyethyl]-2-hydroxyphenyl]methanesulfonamide hydrochloride], the results for the EC50 at human β3 (setting [4]) and in the data set on rat adipocytes were 0.021 nM and 200 nM, respectively. The Emax was found to be 84% at human β3 (setting [5]) and 132% with rat adipocytes.
